Target: T1, 125I-TGF-β isoform-α2M* complexes (Homo sapiens, UniProt P01023)
T1 construct: was purified from pooled citrate-treate human plasma; from tissue; host or cells: pooled citrate-treated human plasma
T1 sequence (P01023 24-1474): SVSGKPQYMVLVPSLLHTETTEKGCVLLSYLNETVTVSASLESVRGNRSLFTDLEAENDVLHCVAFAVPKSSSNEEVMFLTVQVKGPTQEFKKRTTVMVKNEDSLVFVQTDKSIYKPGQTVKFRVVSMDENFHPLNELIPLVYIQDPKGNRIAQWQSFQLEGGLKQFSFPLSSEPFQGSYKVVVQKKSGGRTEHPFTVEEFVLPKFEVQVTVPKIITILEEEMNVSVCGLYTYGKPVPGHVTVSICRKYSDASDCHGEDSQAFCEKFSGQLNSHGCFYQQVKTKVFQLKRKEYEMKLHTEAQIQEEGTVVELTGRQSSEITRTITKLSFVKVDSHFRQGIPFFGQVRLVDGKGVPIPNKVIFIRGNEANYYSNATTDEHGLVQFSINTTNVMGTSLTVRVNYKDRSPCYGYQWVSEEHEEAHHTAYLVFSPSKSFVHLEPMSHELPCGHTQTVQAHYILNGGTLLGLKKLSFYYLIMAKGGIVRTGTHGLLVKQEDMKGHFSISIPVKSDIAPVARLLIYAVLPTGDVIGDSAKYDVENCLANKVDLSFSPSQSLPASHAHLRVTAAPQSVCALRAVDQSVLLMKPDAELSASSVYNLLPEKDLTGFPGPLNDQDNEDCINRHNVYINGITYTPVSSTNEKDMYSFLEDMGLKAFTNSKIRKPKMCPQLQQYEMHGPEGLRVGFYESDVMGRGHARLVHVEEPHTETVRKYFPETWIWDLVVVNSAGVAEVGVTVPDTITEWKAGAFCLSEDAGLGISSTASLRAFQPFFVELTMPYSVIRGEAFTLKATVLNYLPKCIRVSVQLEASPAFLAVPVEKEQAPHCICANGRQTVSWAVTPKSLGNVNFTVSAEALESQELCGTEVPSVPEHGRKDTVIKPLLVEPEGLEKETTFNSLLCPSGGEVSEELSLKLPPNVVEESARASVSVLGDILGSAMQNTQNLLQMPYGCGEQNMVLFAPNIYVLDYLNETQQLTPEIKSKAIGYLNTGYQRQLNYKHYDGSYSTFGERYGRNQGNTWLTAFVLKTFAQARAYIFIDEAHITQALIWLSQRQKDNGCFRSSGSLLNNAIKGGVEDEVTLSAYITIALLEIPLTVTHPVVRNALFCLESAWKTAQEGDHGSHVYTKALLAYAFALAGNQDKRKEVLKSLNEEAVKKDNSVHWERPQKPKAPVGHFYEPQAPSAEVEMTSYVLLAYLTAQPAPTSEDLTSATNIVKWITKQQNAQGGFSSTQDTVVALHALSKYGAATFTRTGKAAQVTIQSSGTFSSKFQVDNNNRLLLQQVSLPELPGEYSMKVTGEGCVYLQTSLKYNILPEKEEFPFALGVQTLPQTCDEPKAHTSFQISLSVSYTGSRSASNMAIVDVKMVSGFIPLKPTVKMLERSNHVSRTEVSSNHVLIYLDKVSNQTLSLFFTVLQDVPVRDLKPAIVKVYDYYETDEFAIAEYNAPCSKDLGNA
Experiment: Complex formation of 125I-TGF-β isoforms and α2M* by DSS cross-linking and 7.5% SDS-PAGE
Format: binding
Details: DSS cross-linking, effective concentrations comparable to non-denaturing PAGE
Description: TGF- ? isoforms bind to α2M* with different affinities: TGF ? β2>TGF ? β1 ( active sites of TGF ? β1 and TGF- ? 2 responsible for high-affinity binding to ? 2M* are disti from the low-affinity ? 2M* binding site in TGF- ? 3 (19). To determine if fatty acids differentially affect the binding of TGF- ? isoforms to ? 2M*, the effects of various concentrations of arachidonic acid and myristic acid on complex formation of ^125I-labeled TGF ? β isoforms and ? 2M were determined*. […] It inhibited 30% of the complex form . α2M* and TGF ? β2 and TGF ? β3 at 100 and >250 μM, respectively. Arachidon polyunsaturated fatty acid, was a stronger inhibitor of complex formation of ? 2M* and TGF-.β2/TGF ? β3. It inhibited 50% of the complex formation of ? 2M* and ^125I-TGF- ? 2 at 50 μM (FIG. 3A). The observation that myristic acid and arachidonic acid inhibited complex formation of ^125I-TGF- ? […] 2M* complexes in the reaction mixtures were then analyzed by 7.5% SDS-PAGE and autoradiography.
Complex formation of ^125I-TGF-β and ? […] After 30 min at room temperature, the complex formation of ^125I-TGF- ? and. α2M* was determined by 5% non-denaturing polyacrylamide gel electrophoresis (PAGE) or by 7.5% SDS-PAGE following cross-linking by 0.6 mM DSS. After electrophoresis, the gel was stained with Coomassie blue and analyzed by autoradiography. […] 2M* was quantified using a PhosphoImager (Fuji).

CCCCC/C=C\C/C=C\C/C=C\C/C=C\CCCC(=O)O [arachidonic acid]
blocking of cross-linked 125I-TGF-β isoform-α2M* complex formation: blocked complex formation

From patent US20040229791A1, “Compositions and methods of modulating TGF-beta activity by fatty acids” (priority 2002, published 2004)
